pIC50: −log10 of the molar value. Where a SMILES comes first, the peptide text is derived from it. [ ]: non-standard residue; d: D form. The star is where a group is joined. dPhe(4-Cl) = N[C@H](Cc1ccc(Cl)cc1)C(=O)O; d2Nal = N[C@H](Cc1ccc2ccccc2c1)C(=O)O; Palmitoyl = CCCCCCCCCCCCCCCC(=O)*; dCit = NC(=O)NCCC[C@@H](N)C(=O)O; d3Pal = N[C@H](Cc1cccnc1)C(=O)O
Columns and labels:
[1] = Compound gel-forming ability in water (visual inspection, tube tapping assay, tilted tube assay); format: physicochemical;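 also: peptides mixed with de-ionized water at about 22-25 °C, judged after 20 min by eye plus tube tapping (10 taps, moves counted) and 90° tilt mobility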
[2] = molecular target: T1, GnRH receptor (GnRHR or LHRHR) (Homo sapiens, UniProt P30968); assay: GnRHR calcium flux assay (Discoverx), antagonistic; format: cell-based; settings: for pIC50: LHRH-stimulated
T1 sequence (P30968 1-328): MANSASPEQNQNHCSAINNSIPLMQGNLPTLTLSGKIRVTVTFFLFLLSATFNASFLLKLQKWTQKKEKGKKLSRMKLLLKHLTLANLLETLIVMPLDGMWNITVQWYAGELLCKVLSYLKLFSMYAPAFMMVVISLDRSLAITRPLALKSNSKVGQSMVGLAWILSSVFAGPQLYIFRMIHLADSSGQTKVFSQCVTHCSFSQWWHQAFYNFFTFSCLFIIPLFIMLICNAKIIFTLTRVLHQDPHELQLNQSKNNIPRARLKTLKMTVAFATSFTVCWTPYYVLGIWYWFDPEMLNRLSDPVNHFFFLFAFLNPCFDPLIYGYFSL
Text: To study the bioactivities of conjugated and mutated peptides, we employed in vitro receptor-activation assays with cultured cells expressing recombinant melanocortin receptor 1 (MC1R), melanocortin receptor 4 (MC4R), CRH receptor 2 (CRHR2), PTH receptor 1 (PTHR1), or kappa opioid receptor (OPRK1). The agonistic activities toward MC1R, MC4R, CRHR2, PTHR1, and OPRK1 were assyed with an MC1R cAMP assay, an MC4R cAMP assay, a CRHR2 cAMP assay, a PTHR1 cAMP assay and an OPRK1 cAMP assay from Discoverx Inc. (Fremont, Calif.), respectively. The antagonistic activities toward bradykinin receptor 2 (BDKRB2) and GnRH receptor (GnRHR or LHRHR) were assayed with a BDKRB2 arrestin assay and a GnRHR calcium flux assay from Discoverx, respectively.
For the analysis of calcium flux, cell lines were expanded from freezer stocks and seeded in a total volume of 20 μL into black-walled, clear-bottom, Poly-D-lysine coated 384-well microplates and incubated at 37 C for the appropriate time prior to testing. Assays were performed in 1× Dye Loading Buffer consisting of 1× Dye, 1× Additive A and 2.5 mM Probenecid in HBSS/20 mM Hepes. Cells were loaded with dye prior to testing. Media was aspirated from cells and replaced with 20 μL Dye Loading Buffer. Cells were incubated for 30-60 minutes at 37 C. For agonist determination, cells were incubated with sample to induce response. After dye loading, cells were removed from the incubator and 10 μL HBSS/20 mM Hepes was added. Vehicle was included in the buffer when performing agonist dose curves to define the EC80 for antagonist assays. Cells were incubated for 30 minutes at room temperature in the dark to equilibrate plate temperature. Intermediate dilution of sample stocks was performed to generate 4× sample in assay buffer. Compound agonist activity was measured on a FLIPR Tetra (MDS), and calcium mobilization was monitored for 2 minutes and 10 μL 4× sample in HBSS/20 mM Hepes was added to the cells 5 seconds into the assay.
For antagonist determination, cells were pre-incubated with sample followed by agonist challenge at the EC80 concentration. Intermediate dilution of sample stocks was performed to generate 3× sample in assay buffer. After dye loading, cells were removed from the incubator and 10 μL 3× sample was added. Cells were incubated for 30 minutes at room temperature in the dark to equilibrate plate temperature. Vehicle concentration was 1%. Compound antagonistic activity was measured on a FLIPR Tetra (MDS), and calcium mobilization was monitored for 2 minutes and 10 μL EC80 agonist in HBSS/20 mM Hepes was added to the cells 5 seconds into the assay. The compound activity was analyzed using a CBIS data analysis suite (ChemInnovation, CA), and percentage activity is calculated using the following formula: % Activity=100%×(mean RFU of test sample−mean RFU of vehicle control)/(mean MAX RFU control ligand−mean RFU of vehicle control). For antagonist assays, percentage inhibition is calculated using the following formula: % Inhibition=100%×(1−(mean RFU of test sample−mean RFU of vehicle control)/(mean RFU of EC80 control−mean RFU of vehicle control)).

| gel formation at 6% w/w ([1]; 6% w/w in water) | gel formation at 11% w/w ([1]; 11% w/w in water) | gel formation in aqueous solution, 6% ([1]; Table 3, 6% w/w) | gel formation in aqueous solution, 11% ([1]; Table 3, 11% w/w) | propensity to form gels, chimeric or mutated polypeptides, 3% ([1]; Table 5, 3% w/w) | Max Activity % of positive control [2] | SMILES | propensity to form gels, chimeric or mutated polypeptides, 6% ([1]; Table 5, 6% w/w) | propensity to form gels, chimeric or mutated polypeptides, 11% ([1]; Table 5, 11% w/w) | pIC50 [2] |
| --- | --- | --- | --- | --- | --- | --- | --- | --- | --- |
| semisolid gel | semisolid gel | SS (SS for semisolid gel) | SS (SS for semisolid gel) | AS/IS | 135 % of positive control | CCCCCCCCCCCCCCCC(=O)N[C@@H](CCCCN)C(=O)N[C@H](C(=O)N[C@@H](CCC(N)=O)C(=O)N[C@@H](CCCCN)C(=O)N[C@@H](CC(C)C)C(=O)N[C@@H](CO)C(=O)N[C@@H](C)C(=O)N1CCC[C@H]1C(=O)N[C@H](C(=O)N[C@@H](CC(=O)O)C(=O)N1CCC[C@H]1C(=O)N[C@@H](CO)C(=O)N[C@@H](CO)C(=O)N1CCC[C@H]1C(=O)N[C@@H](Cc1c[nH]cn1)C(=O)N[C@@H](CO)C(=O)N[C@@H](Cc1ccc(O)cc1)C(=O)NCCOCCOCC(=O)N[C@H](Cc1ccc2ccccc2c1)C(=O)N[C@H](Cc1ccc(Cl)cc1)C(=O)N[C@H](Cc1cccnc1)C(=O)N[C@@H](CO)C(=O)N[C@@H](Cc1ccc(O)cc1)C(=O)N[C@H](CCCNC(N)=O)C(=O)N[C@@H](CC(C)C)C(=O)N[C@@H](CCCNC(=N)N)C(=O)N1CCC[C@H]1C(=O)N[C@H](C)C(N)=O)C(C)C)C(C)C [SEQ ID NO:202] | SS (An ability to form semisolid gel is represented by an SS) | SS (An ability to form semisolid gel is represented by an SS) | – |
| – | – | – | – | – | 109 % of positive control | CCCCCCCCCCCCCCCC(=O)N[C@@H](Cc1c[nH]cn1)C(=O)N[C@@H](CO)C(=O)N[C@@H](Cc1ccc(O)cc1)C(=O)N[C@H](Cc1ccc2ccccc2c1)C(=O)N[C@H](Cc1ccc(Cl)cc1)C(=O)N[C@H](Cc1cccnc1)C(=O)N[C@@H](CO)C(=O)N[C@@H](Cc1ccc(O)cc1)C(=O)N[C@H](CCCNC(N)=O)C(=O)N[C@@H](CC(C)C)C(=O)N[C@@H](CCCNC(=N)N)C(=O)N1CCC[C@H]1C(=O)N[C@H](C)C(N)=O [SEQ ID NO:203, Pal-HSY-(D-Nal)-(D-Cpa)-(D-Pal)-SY-(D-Cit)-LRP-(D-Ala)-NH2] (Palmitoyl-HSY[d2Nal][dPhe(4-Cl)][d3Pal]SY[dCit]LRP[dA]-NH2) | – | – | > 9.29 |

| SMILES | gel formation at 6% w/w ([1]; 6% w/w in water) | gel formation at 11% w/w ([1]; 11% w/w in water) | gel formation in aqueous solution, 6% ([1]; Table 3, 6% w/w) | gel formation in aqueous solution, 11% ([1]; Table 3, 11% w/w) | propensity to form gels, chimeric or mutated polypeptides, 3% ([1]; Table 5, 3% w/w) | Max Activity % of positive control [2] | propensity to form gels, chimeric or mutated polypeptides, 6% ([1]; Table 5, 6% w/w) | propensity to form gels, chimeric or mutated polypeptides, 11% ([1]; Table 5, 11% w/w) | pIC50 [2] |
| --- | --- | --- | --- | --- | --- | --- | --- | --- | --- |
| CC(=O)N[C@H](Cc1ccc2ccccc2c1)C(=O)N[C@H](Cc1ccc(Cl)cc1)C(=O)N[C@H](Cc1cccnc1)C(=O)N[C@@H](CO)C(=O)N[C@@H](Cc1ccc(O)cc1)C(=O)N[C@H](CCCNC(N)=O)C(=O)N[C@@H](CC(C)C)C(=O)N[C@@H](CCCNC(=N)N)C(=O)N1CCC[C@H]1C(=O)N[C@H](C)C(N)=O [Cetrorelix, reference compound] (Ac-[d2Nal][dPhe(4-Cl)][d3Pal]SY[dCit]LRP[dA]-NH2) | – | – | – | – | – | 91.4 % of positive control | – | – | 10.10 |
